We go through three compounds from patent publication US20260166045A1, “COMBINATION THERAPY COMPRISING GSPT1-DIRECTED MOLECULAR GLUE DEGRADERS AND PI3K/AKT/mTOR PATHWAY INHIBITORS” (Monte Rosa Therapeutics, Inc., priority 2022, published 2026).

Each structure is given as a SMILES string.

The test system of one assay is NCI-H1836 cell line. The assay is described as follows: CTG viability, 11x11 concentration matrix, Loewe synergy (SCLC). Conditions: inhibitor combined with compound 1-1, 11x11 matrix, 72 hours.
Another assay deals with NCI-H1876 cell line. The description is as above. Conditions: inhibitor combined with compound 1-1, 11x11 matrix, 72 hours.
The next assay has as its system NCI-H209 cell line. The description is as above. To be noted: inhibitor combined with compound 1-1, 11x11 matrix, 72 hours.
For a further assay, the system named is NCI-H526 cell line. Described as above. Conditions: inhibitor combined with compound 1-1, 11x11 matrix, 72 hours.
For the next assay, the system named is NCI-H69 cell line. The description is as above. To be noted: inhibitor combined with compound 1-1, 11x11 matrix, 72 hours.
The subject of another assay is DOHH-2 cell line. The assay is described as follows: CTG viability, 11x11 concentration matrix, Loewe synergy (lymphoma). Conditions: inhibitor combined with compound 1-1, 11x11 matrix, 72 hours.
The next assay has as its system DB cell line. The description is as above. To be noted: inhibitor combined with compound 1-1, 11x11 matrix, 72 hours.
The test system of another assay is WSU-DLCL2 cell line. The assay is described as above. To be noted: inhibitor combined with compound 1-1, 11x11 matrix, 72 hours.
A further assay has as its system RAJI cell line. The description is as above. To be noted: inhibitor combined with compound 1-1, 11x11 matrix, 72 hours.
The subject of another assay is SU-DHL-6 cell line. The assay is described as above. To be noted: inhibitor combined with compound 1-1, 11x11 matrix, 72 hours.
The next assay deals with MM.1S cell line. Put plainly: CTG viability, 11x11 concentration matrix, Loewe synergy (multiple myeloma). Conditions: inhibitor combined with compound 1-1, 11x11 matrix, 72 hours.
The subject of the next assay is OPM-2 cell line. The assay is described as above. To be noted: inhibitor combined with compound 1-1, 11x11 matrix, 72 hours.
For a further assay, the system named is U266B1 cell line. Described as above. To be noted: inhibitor combined with compound 1-1, 11x11 matrix, 72 hours.
The subject of the next assay is RPMI 8226 cell line. The assay is described as above. To be noted: inhibitor combined with compound 1-1, 11x11 matrix, 72 hours.
The next assay has as its system KMS-34 cell line. The description is as above. To be noted: inhibitor combined with compound 1-1, 11x11 matrix, 72 hours.
For another assay, the system named is MCF7 xenografts. The assay is described as follows: MCF7 cell-derived xenograft (CDX) in vivo combination study. Set-up: species or system BALB/c nude mice. To be noted: compound 1-1 10 mg/kg. On the procedure: […] (0.36 mg) pellets (Innovative Research of America Cat. No.: SE-121, pellet size: 3.0 mm) were implanted 2-3 days before cell inoculation.
(§1) Compound 1-1 was formulated every day freshly as a solution in 5% DMSO/95% (30% w/v HPβCD in water). This formulation was also used as vehicle control. Everolimus was formulated as a suspension in 1% MC (400 cps), which was prepared every 3 days.
(§2) Body weights were measured at the same time.
An approximation of drug interactions was made using the method described by Clarke (Clarke et al. 1997. Breast Cancer Res Treat. 46(2-3):255-78). This was applied to […] and can estimate interactions from limited data. In short, for compound A, B, or the combination AB (with control group C), antagonism is predicted when (AB)/C>(A/C)×(B/C), an additive effect is predicted when (AB)/C=(A/C)×(B/C), and synergistic interaction is predicted to occur when (AB)/C<(A/C)×(B/C). Calculations in Table 10B indicate that the interaction of everolimus and compound 1-1 in the MCF7 CDX model is synergistic.
17β-Estradiol (0.36 mg) pellets (Innovative Research of America Cat. No.: SE-121, pellet size: 3.0 mm) were implanted 2-3 days before cell inoculation.
(§3) Compound 1-1 was formulated every day freshly as a solution in 5% DMSO/95% (30% w/v HPβCD in water). This formulation was also used as vehicle control. Alpelisib was formulated as a solution in 20% captisol+80% water (pH adjusted to 4), which was prepared every week.

Another assay concerns CAL51 xenografts. Put plainly: CAL51 cell-derived xenograft (CDX) in vivo combination study. Set-up: species or system SCID Beige mice. To be noted: compound 1-1 3 mg/kg. On the procedure: as §1, §2, §3

Description for DB cell line: (§4) Cells were cultured in the media recommended by the supplier.
(§5) On the day before compound addition, cells were seeded in 384-well-plates (white with clear flat bottom) at the densities indicated in Table 6 in 40 μL of growth medium. The next day, compounds were dispensed from 10 mM stocks using a HP D300 dispenser according to the concentration matrices described above. For each cell line, the compound concentration matrices were dispensed twice as side-by-side duplicates on one 384-well-plate. In addition, each plate contained 14 wells with only growth medium and 44 wells with cells treated with DMSO alone to calculate the average background and maximal signals, respectively. The final DMSO concentration was normalized to 0.2% across the plates. Plates were then incubated for 72 hours. CellTiter-Glo® Luminescent Cell Viability Assay (CTG, Promega G7570) reagent was prepared according to the manufacturer's instructions. Plates were equilibrated to room temperature for approximately 30 minutes, 25 μL CTG reagent was added to each well and plates were mixed on an orbital shaker for 10 minutes to allow for cell lysis. After further incubation for 20 minutes at room temperature, the clear bottoms of the plates were pasted with white back seal and luminescence was read on an EnVision plate reader (measurement time 0.1 seconds).
Description for DOHH-2 cell line: as §4, §5
Description for KMS-34 cell line: as §4, §5
Description for MM.1S cell line: as §4, §5
Description for NCI-H1836 cell line: as §4, §5
Description for NCI-H1876 cell line: as §4, §5
Description for NCI-H209 cell line: as §4, §5
Description for NCI-H526 cell line: as §4, §5
Description for NCI-H69 cell line: as §4, §5
Description for OPM-2 cell line: as §4, §5
Description for RAJI cell line: as §4, §5
Description for RPMI 8226 cell line: as §4, §5
Description for SU-DHL-6 cell line: as §4, §5
Description for U266B1 cell line: as §4, §5
Description for WSU-DLCL2 cell line: as §4, §5

For the compound `NC1(C(=O)N[C@@H](CCO)c2ccc(Cl)cc2)CCN(c2ncnc3[nH]ccc23)CC1` [Capivasertib, 4-amino-N-[(1S)-1-(4-chlorophenyl)-3-hydroxypropyl]-1-(7H-pyrrolo[2,3-d]pyrimidin-4-yl)piperidine-4-carboxamide], the “Mean Loewe synergy score, NCI-H1836” value in the assay on NCI-H1836 cell line stood at 1.9. In addition, the “Mean Loewe synergy score, NCI-H1876” value in the assay on NCI-H1876 cell line amounted to 0.7. For the same compound, in the assay with NCI-H209 cell line, the “Mean Loewe synergy score, NCI-H209” value came out at 0.85. Also, the “Mean Loewe synergy score, NCI-H526” value in the assay with NCI-H526 cell line turned out to be 4.3. In addition, the “Mean Loewe synergy score, NCI-H69” value in the assay with NCI-H69 cell line amounted to 7.38. In the assay on DOHH-2 cell line, the “Mean Loewe synergy score, DOHH2” value worked out at 2.89. In the assay on DB cell line, the “Mean Loewe synergy score, DB” value is reported as 0.29. For the same compound, the “Mean Loewe synergy score, WSU-DLCL2” value in the assay on WSU-DLCL2 cell line is given as 0.95. In the assay on RAJI cell line, the “Mean Loewe synergy score, RAJI” value came to 2.97. For the same compound, the “Mean Loewe synergy score, SUDHL6” value in the assay on SU-DHL-6 cell line was −1.92. The “Mean Loewe synergy score, MM.1S” value with MM.1S cell line was found to be 2.63. The “Mean Loewe synergy score, OPM-2” value in the assay on OPM-2 cell line is listed as −1. In addition, the “Mean Loewe synergy score, U266B1” value in the assay on U266B1 cell line is reported as 1.76. Besides, the “Mean Loewe synergy score, RPMI 8226” value with RPMI 8226 cell line stood at 4.81. In addition, the “Mean Loewe synergy score, KMS-34” value with KMS-34 cell line was 7.48.
With `Nc1cc(C(F)(F)F)c(-c2cc(N3CCOCC3)nc(N3CCOCC3)n2)cn1` [buparlisib, 5-(2,6-dimorpholin-4-ylpyrimidin-4-yl)-4-(trifluoromethyl)pyridin-2-amine], in the assay with NCI-H1836 cell line, the “Mean Loewe synergy score, NCI-H1836” value turned out to be 1.64. The “Mean Loewe synergy score, NCI-H1876” value in the assay with NCI-H1876 cell line came out at 0.017. Moreover, the “Mean Loewe synergy score, NCI-H209” value in the assay with NCI-H209 cell line turned out to be 0.78. The “Mean Loewe synergy score, NCI-H526” value in the assay on NCI-H526 cell line was −0.21. Besides, the “Mean Loewe synergy score, NCI-H69” value in the assay on NCI-H69 cell line was 4.09. The “Mean Loewe synergy score, DOHH2” value with DOHH-2 cell line is 1.11. In addition, in the assay on DB cell line, the “Mean Loewe synergy score, DB” value turned out to be 1.26. Further, the “Mean Loewe synergy score, WSU-DLCL2” value in the assay with WSU-DLCL2 cell line is recorded as −3.1. Also, the “Mean Loewe synergy score, RAJI” value in the assay on RAJI cell line was 1.34. Besides, the “Mean Loewe synergy score, SUDHL6” value with SU-DHL-6 cell line is −2.5. Also, the “Mean Loewe synergy score, MM.1S” value in the assay on MM.1S cell line is 1.48. Further, in the assay on OPM-2 cell line, the “Mean Loewe synergy score, OPM-2” value is −1.38. Moreover, in the assay on U266B1 cell line, the “Mean Loewe synergy score, U266B1” value is given as −0.19. The “Mean Loewe synergy score, RPMI 8226” value with RPMI 8226 cell line stood at 3.57. Further, in the assay with KMS-34 cell line, the “Mean Loewe synergy score, KMS-34” value is on record as 5.94.
With `Cc1nc(NC(=O)N2CCC[C@H]2C(N)=O)sc1-c1ccnc(C(C)(C)C(F)(F)F)c1` [Alpelisib, (2S)-1-N-[4-methyl-5-[2-(1,1,1-trifluoro-2-methylpropan-2-yl)pyridin-4-yl]-1,3-thiazol-2-yl]pyrrolidine-1,2-dicarboxamide], in the assay with MCF7 xenografts (day 28, ANOVA with post hoc Tukey's test, alpelisib 50 mg/kg, p.o. qd), the “anti-tumor effect compared to vehicle” value is “significant anti-tumor effect”. Also, the “Δ TV ratio to vehicle group (A/C, B/C, (AB)/C)” value was 0.15 in the assay on MCF7 xenografts (day 28, Clarke method, alpelisib 50 mg/kg, p.o. qd) and 0.76 with CAL51 xenografts (day 21, Clarke method, alpelisib 20 mg/kg, p.o. qd). Also, the “Δ TV (delta tumor volume)” value with MCF7 xenografts (day 28, alpelisib 50 mg/kg, combination 50 + 10 mg/kg, p.o. qd for 28 days, average of four tumors) stood at 91 mm^3; with CAL51 xenografts (day 21, alpelisib 20 mg/kg, combination 20 + 3 mg/kg, p.o. qd for 21 days, average of four tumors) it was 425 mm3. Besides, in the assay on CAL51 xenografts (day 21, ANOVA with post hoc Tukey's test, alpelisib 20 mg/kg, p.o. qd), the “antitumor effect vs vehicle (tumor volume)” value was “neither alpelisib nor compound 1-1 produced a statistically significant antitumor effect”. In the assay on NCI-H1836 cell line, the “Mean Loewe synergy score, NCI-H1836” value is given as 1.69. Moreover, the “Mean Loewe synergy score, NCI-H1876” value with NCI-H1876 cell line turned out to be 1.64. For the same compound, the “Mean Loewe synergy score, NCI-H209” value in the assay with NCI-H209 cell line stood at 1.49. Further, in the assay on NCI-H526 cell line, the “Mean Loewe synergy score, NCI-H526” value was 3.7. Besides, in the assay with NCI-H69 cell line, the “Mean Loewe synergy score, NCI-H69” value amounted to 5.05. The “Mean Loewe synergy score, DOHH2” value in the assay on DOHH-2 cell line worked out at 1.59. The “Mean Loewe synergy score, DB” value in the assay on DB cell line is −2.27. For the same compound, in the assay with WSU-DLCL2 cell line, the “Mean Loewe synergy score, WSU-DLCL2” value is recorded as −2.69. In addition, the “Mean Loewe synergy score, RAJI” value in the assay with RAJI cell line is given as 2.05. Also, the “Mean Loewe synergy score, SUDHL6” value in the assay on SU-DHL-6 cell line is on record as −6.28. The “Mean Loewe synergy score, MM.1S” value in the assay on MM.1S cell line amounted to 3.44. The “Mean Loewe synergy score, OPM-2” value in the assay with OPM-2 cell line was −2.51. Besides, the “Mean Loewe synergy score, U266B1” value in the assay on U266B1 cell line came out at 0.13. For the same compound, the “Mean Loewe synergy score, RPMI 8226” value in the assay with RPMI 8226 cell line was 0.9. Besides, the “Mean Loewe synergy score, KMS-34” value in the assay on KMS-34 cell line came out at 7.85.
